Reference: the supplement of paper PMC13380429

Key:
[1] = system: Calu-3; experiment: cell viability relative to DMSO; higher = less toxic; details: 72 h
[2] = system: HepG2; experiment: as above; details: 72 h
[3] = system: Vero E6; experiment: as above; details: 72 h
[4] = system: Caco-2; experiment: as above; details: 72 h
[5] = system: U2OS; experiment: as above; details: 72 h
[6] = system: A549-ACE2; experiment: phospholipidosis EC50; higher = less potent phospholipidosis inducer
[7] = system: Calu-3; experiment: drug sensitivity score (DSS) for viability; higher = more toxic; extreme values may be limits of the assay; details: 72 h
[8] = system: HepG2; experiment: as above; details: 72 h
[9] = system: Vero E6; experiment: as above; details: 72 h
[10] = system: Caco-2; experiment: as above; details: 72 h
[11] = system: U2OS; experiment: as above; details: 72 h
[12] = system: A549-ACE2 infected with SARS-CoV-2; experiment: cell count relative to DMSO; higher = less toxic; details: 24 h
[13] = system: A549-ACE2 infected with SARS-CoV-2; experiment: morphology score (similarity to uninfected cells); higher = more like uninfected cells; details: 24 h
[14] = system: A549-ACE2 infected with SARS-CoV-2; experiment: SARS-CoV-2 infection rate relative to DMSO; higher = more infection; details: 24 h
[15] = system: A549-ACE2; experiment: drug-induced phospholipidosis relative to tamoxifen; higher = more phospholipidosis
[16] = system: Calu-3; experiment: relative viability EC50 (midpoint between 100% and the lowest measured viability); higher = less toxic; details: 72 h
[17] = system: HepG2; experiment: as above; details: 72 h
[18] = system: Vero E6; experiment: as above; details: 72 h
[19] = system: U2OS; experiment: as above; details: 72 h
[20] = system: Caco-2; experiment: as above; details: 72 h

Oc1ccc2c(c1)CC[C@H](c1ccccc1)[C@@H]2c1ccc(OCCN2CCCC2)cc1 [lasofoxifene]
Details	SARS-CoV-2 infection rate [%]	cell count [%]	cell viability [%]	morphology score	phospholipidosis EC50 [nM]
[1], 1 nM	–	–	88.7	–	–
[1], 10 nM	–	–	96.6	–	–
[1], 100 nM	–	–	97.6	–	–
[1], 1000 nM	–	–	95.9	–	–
[1], 10000 nM	–	–	3.8	–	–
[2], 1 nM	–	–	93.4	–	–
[2], 10 nM	–	–	97.3	–	–
[2], 100 nM	–	–	106	–	–
[2], 1000 nM	–	–	93.8	–	–
[2], 10000 nM	–	–	27.6	–	–
[3], 1 nM	–	–	99.5	–	–
[3], 10 nM	–	–	103	–	–
[3], 100 nM	–	–	103	–	–
[3], 1000 nM	–	–	102	–	–
[3], 10000 nM	–	–	61.2	–	–
[4], 1 nM	–	–	101	–	–
[4], 10 nM	–	–	106	–	–
[4], 100 nM	–	–	97.5	–	–
[4], 1000 nM	–	–	100	–	–
[4], 10000 nM	–	–	60.1	–	–
[5], 1 nM	–	–	105	–	–
[5], 10 nM	–	–	99.3	–	–
[5], 100 nM	–	–	102	–	–
[5], 1000 nM	–	–	95	–	–
[5], 10000 nM	–	–	69.3	–	–
[6], 24 h	–	–	–	–	2320
[6], 48 h	–	–	–	–	2820
[6], 72 h	–	–	–	–	3000
[12], 0.1 µM	–	105	–	–	–
[12], 0.3 µM	–	102	–	–	–
[12], 1 µM	–	106	–	–	–
[12], 3 µM	–	120	–	–	–
[13], 0.1 µM	–	–	–	0.1	–
[13], 0.3 µM	–	–	–	0.07	–
[13], 1 µM	–	–	–	0.48	–
[13], 3 µM	–	–	–	0.72	–
[14], 0.1 µM	98	–	–	–	–
[14], 0.3 µM	95	–	–	–	–
[14], 1 µM	78	–	–	–	–
[14], 3 µM	40	–	–	–	–

Details	drug sensitivity score	relative viability EC50 [nM]
[7]	5.9	–
[8]	5	–
[9]	1.8	–
[10]	2	–
[11]	2.2	–
[16]	–	2840
[17]	–	2460

drug-induced phospholipidosis [%], [15]
Details	0.3 µM	0.833333 µM	3.33333 µM	6.66667 µM	10 µM
24 h	8.45	22	81.6	102	112
48 h	7.62	12.5	79.3	91.7	119
72 h	6.02	12	69	83.8	120

NCCC(Oc1ccc(C(F)(F)F)cc1)c1ccccc1 (configuration not stated) [norfluoxetine]
Details	SARS-CoV-2 infection rate [%]	cell count [%]	cell viability [%]	morphology score	phospholipidosis EC50 [nM]
[1], 1 nM	–	–	96.4	–	–
[1], 10 nM	–	–	108	–	–
[1], 100 nM	–	–	100	–	–
[1], 1000 nM	–	–	93.6	–	–
[1], 10000 nM	–	–	54.3	–	–
[2], 1 nM	–	–	93.6	–	–
[2], 10 nM	–	–	92.5	–	–
[2], 100 nM	–	–	107	–	–
[2], 1000 nM	–	–	73.7	–	–
[2], 10000 nM	–	–	64.7	–	–
[3], 1 nM	–	–	106	–	–
[3], 10 nM	–	–	94.5	–	–
[3], 100 nM	–	–	99.8	–	–
[3], 1000 nM	–	–	95.7	–	–
[3], 10000 nM	–	–	84.4	–	–
[4], 1 nM	–	–	90	–	–
[4], 10 nM	–	–	104	–	–
[4], 100 nM	–	–	104	–	–
[4], 1000 nM	–	–	103	–	–
[4], 10000 nM	–	–	63.3	–	–
[5], 1 nM	–	–	96.9	–	–
[5], 10 nM	–	–	102	–	–
[5], 100 nM	–	–	108	–	–
[5], 1000 nM	–	–	102	–	–
[5], 10000 nM	–	–	90.9	–	–
[6], 24 h	–	–	–	–	6780
[6], 48 h	–	–	–	–	5960
[6], 72 h	–	–	–	–	10700
[12], 0.3 µM	–	99	–	–	–
[12], 3 µM	–	103	–	–	–
[12], 10 µM	–	128	–	–	–
[12], 30 µM	–	73	–	–	–
[13], 0.3 µM	–	–	–	0.13	–
[13], 3 µM	–	–	–	0.26	–
[13], 10 µM	–	–	–	0.86	–
[13], 30 µM	–	–	–	0	–
[14], 0.3 µM	99	–	–	–	–
[14], 3 µM	84	–	–	–	–
[14], 10 µM	17	–	–	–	–
[14], 30 µM	46	–	–	–	–

Details	drug sensitivity score	relative viability EC50 [nM]
[7]	3.4	–
[8]	4.7	–
[9]	0.7	–
[10]	1.5	–
[11]	0	–
[18]	–	> 10000
[19]	–	> 10000

drug-induced phospholipidosis [%], [15]
Details	0.3 µM	0.833333 µM	3.33333 µM	6.66667 µM	10 µM	30 µM
24 h	-1.03	-3.68	19.4	73	85.6	130
48 h	1.11	-2.85	18.7	79.1	101	132
72 h	2.19	-3.51	8.94	50.5	78.9	153

CCC(C)(C)C(=O)O[C@H]1C[C@@H](C)C=C2C=C[C@H](C)[C@H](CC[C@@H]3C[C@@H](O)CC(=O)O3)[C@H]21 [simvastatin]
[13]
Details	morphology score
0.1 µM	0.01
0.3 µM	0.17
1 µM	0.04
3 µM	-0.23

c1cc2c(cc1C1CCCCC1)c1c3n2CCNC3CCC1 (configuration not stated) [tetrindole]
Details	SARS-CoV-2 infection rate [%]	cell count [%]	cell viability [%]	morphology score	phospholipidosis EC50 [nM]
[1], 1 nM	–	–	91.3	–	–
[1], 10 nM	–	–	94.9	–	–
[1], 100 nM	–	–	93.8	–	–
[1], 1000 nM	–	–	88.7	–	–
[1], 10000 nM	–	–	0.8	–	–
[2], 1 nM	–	–	101	–	–
[2], 10 nM	–	–	107	–	–
[2], 100 nM	–	–	95.8	–	–
[2], 1000 nM	–	–	83.2	–	–
[2], 10000 nM	–	–	0.5	–	–
[3], 1 nM	–	–	97.9	–	–
[3], 10 nM	–	–	91.4	–	–
[3], 100 nM	–	–	97.1	–	–
[3], 1000 nM	–	–	93.9	–	–
[3], 10000 nM	–	–	1.3	–	–
[4], 1 nM	–	–	101	–	–
[4], 10 nM	–	–	92.3	–	–
[4], 100 nM	–	–	92.9	–	–
[4], 1000 nM	–	–	98.5	–	–
[4], 10000 nM	–	–	6.9	–	–
[5], 1 nM	–	–	94.8	–	–
[5], 10 nM	–	–	104	–	–
[5], 100 nM	–	–	97.6	–	–
[5], 1000 nM	–	–	99.5	–	–
[5], 10000 nM	–	–	24.1	–	–
[6], 24 h	–	–	–	–	6500
[6], 48 h	–	–	–	–	2520
[6], 72 h	–	–	–	–	3190
[12], 0.1 µM	–	102	–	–	–
[12], 0.3 µM	–	101	–	–	–
[12], 1 µM	–	102	–	–	–
[12], 3 µM	–	117	–	–	–
[13], 0.1 µM	–	–	–	0.02	–
[13], 0.3 µM	–	–	–	0.07	–
[13], 1 µM	–	–	–	0.29	–
[13], 3 µM	–	–	–	0.87	–
[14], 0.1 µM	102	–	–	–	–
[14], 0.3 µM	96	–	–	–	–
[14], 1 µM	77	–	–	–	–
[14], 3 µM	28	–	–	–	–

Details	drug sensitivity score	relative viability EC50 [nM]
[7]	7.4	–
[8]	8.3	–
[9]	6.4	–
[10]	5.4	–
[11]	4.3	–
[16]	–	2220
[17]	–	1880
[18]	–	2680
[19]	–	3110
[20]	–	3050

drug-induced phospholipidosis [%], [15]
Details	0.3 µM	0.833333 µM	3.33333 µM	6.66667 µM	10 µM	30 µM
24 h	5.21	10.2	71.6	84.5	84.9	215
48 h	7.95	8.82	80.8	101	115	–
72 h	7.78	3.52	72.2	101	122	–
